Data published in patent US20060229433A1, “Modified antiviral peptides with increased activity and cell membrane affinity” (priority 2003, published 2006).
Values joined by “and” are separate entries in the source; they are usually repeats but may differ in a detail not shown here. Equal values may be shown once. Square brackets hold non-standard residues; d marks the D form. Peptide text beside a SMILES is read from it. Ava = NCCCCC(=O)O

Columns and labels:
Type in all cases: cell-based
[1] = test system: HIV-1 NL 4-3; assay: HIV-1 infection of C8166 cells (syncytia formation, p24 ELISA) with HIV-1 NL 4-3; design: key: ++, +, (+), (+)− and − represent decreasing numbers of syncitia formed; ++, +, (+), (+)− and − represent decreasing numbers of syncitia formed; ++, +, (+), (+)− and − represent decreasing numbers of syncitia formed; ++, +, (+), (+)− and − represent decreasing numbers of syncitia formed; ++, +, (+), (+)− and − represent decreasing numbers of syncitia formed; details: Table 6
Experimental: (§1) HIV-1 NL 4-3 isolate (Adachi et al., 1986; Barré-Sinoussi et al., 1983) and highly cytopathic Zairian HIV-1 NDK isolate (Ellrodt et al., 1984) was propagated in permissive CEM cells (Nara et al., 1987). Uninfected CEM and C8166 (Salahuddin et al., 1983) were maintained in RPMI 1640 (R10) with ultraglutamine (cambrex, Vervier, Belgium), penicillin (100 U/ml), streptomycin (100 μg/ml), and 10% heat-inactivated fetal calf serum (Cambrex).
(§2) Samples of 3×10^5/100 μL C8166 cells were preincubated in 96-well microtiter plates in culture medium containing various concentrations of peptide. After a 1 h treatment at 37° C., 100 μl of diluted viral solution of HIV-1 was added. The cells were exposed to the virus for 1 h at 37° C. at a multiplicity of infection of 1000 TCID50 per ml. The cells were washed three times and cultured at 3×10^5/ml of R10 with the treatment in 24-well plates incubated at 37° C. C8166 culture medium was replaced at Day-4 post-infection. The treatment was permanent before virus adsorption, during virus adsorption and after infection. Assays on C8166 cells have been performed at least twice and in duplicate. Toxicity was evaluated by daily cell count and trypan-blue exclusion assay. Infection of C8166 T-cells with HIV-1 was assessed by virus-induced cytopathic effects (syncytia formation) and by quantification of cell free p24 viral protein in the culture supernatants. Measurements of HIV-1 p24^gag concentration in the culture supernatants were achieved by ELISA (ALLIANCE® HIV-1 p24 kit, Perkin Elmer, life sciences, USA).

[2] = test system: HIV-1 NDK; assay: HIV-1 infection of C8166 cells (syncytia formation, p24 ELISA) with HIV-1 NDK; design: key to syncitia formed, Day 4 / syncitia formed, Day 5 / syncitia formed, Day 6 / syncitia formed, Day 7: ++, +, (+), (+)− and − represent decreasing numbers of syncitia formed; ++, +, (+), (+)− and − represent decreasing numbers of syncitia formed; ++, +, (+), (+)− and − represent decreasing numbers of syncitia formed; ++, +, (+), (+)− and − represent decreasing numbers of syncitia formed; ++, +, (+), (+)− and − represent decreasing numbers of syncitia formed; details: for P 24: P 24 after Day 7
Experimental: as §1, §2

[3] = test system: HIV-1 NL 4-3; assay: HIV-1 infection of C8166 cells (syncytia formation, p24 ELISA) with HIV-1 NL 4-3; design: key to syncitia formed, Day 4 / syncitia formed, Day 5 / syncitia formed, Day 6 / syncitia formed, Day 7: ++, +, (+), (+)− and − represent decreasing numbers of syncitia formed; ++, +, (+), (+)− and − represent decreasing numbers of syncitia formed; ++, +, (+), (+)− and − represent decreasing numbers of syncitia formed; ++, +, (+), (+)− and − represent decreasing numbers of syncitia formed; ++, +, (+), (+)− and − represent decreasing numbers of syncitia formed
Experimental: as §1, §2

[4] = C8166 cells, HIV-1 subtype B NL 4-3, Table 9, two lines = tested twice, 8 days apart

Question: What does the source list for `NCC(=O)N1CCC[C@H]1C(=O)NCC(=O)NCCCCC(=O)O` [GPG valeric acid, GPG-NHCH2CH2CH2CH2COOH] (H-GPG[Ava]-OH; N-terminus assumed)?
Answer: Day 4 syncitia formed ([1]; 0.005 μM): −; Day 5 syncitia formed ([1]; 0.005 μM): +; Day 6 syncitia formed ([1]; 0.005 μM): ++; Day 4 syncitia formed ([1]; 0.01 μM): −; Day 5 syncitia formed ([1]; 0.01 μM): +; Day 6 syncitia formed ([1]; 0.01 μM): +; Day 7 syncitia formed ([1]; 0.01 μM): ++; Day 4 syncitia formed ([1]; 0.05 μM): −; Day 5 syncitia formed ([1]; 0.05 μM): −; Day 6 syncitia formed ([1]; 0.05 μM): (+); Day 7 syncitia formed ([1]; 0.05 μM): +; Day 4 syncitia formed ([1]; 0.1 μM): −; Day 5 syncitia formed ([1]; 0.1 μM): −; Day 6 syncitia formed ([1]; 0.1 μM): (+); Day 7 syncitia formed ([1]; 0.1 μM): +; Day 4 syncitia formed ([1]; 0.5 μM): −; Day 5 syncitia formed ([1]; 0.5 μM): −; Day 6 syncitia formed ([1]; 0.5 μM): −; Day 7 syncitia formed ([1]; 0.5 μM): −; Day 4 syncitia formed ([1]; 1 μM): −; Day 5 syncitia formed ([1]; 1 μM): −; Day 6 syncitia formed ([1]; 1 μM): −; Day 7 syncitia formed ([1]; 1 μM): −; Day 4 syncitia formed ([1]; 5 μM): −; Day 5 syncitia formed ([1]; 5 μM): −; Day 6 syncitia formed ([1]; 5 μM): −; Day 7 syncitia formed ([1]; 5 μM): −; syncitia formed, Day 4 ([2]; 0.005 μM): (+); syncitia formed, Day 5 ([2]; 0.005 μM): +; syncitia formed, Day 6 ([2]; 0.005 μM): ++; syncitia formed, Day 7 ([2]; 0.005 μM): ++; P 24 ([2]; 0.005 μM): 23810 pg/mL; syncitia formed, Day 4 ([2]; 0.01 μM): (+); syncitia formed, Day 5 ([2]; 0.01 μM): +; syncitia formed, Day 6 ([2]; 0.01 μM): ++; syncitia formed, Day 7 ([2]; 0.01 μM): ++; P 24 ([2]; 0.01 μM): 23810 pg/mL; syncitia formed, Day 4 ([2]; 0.05 μM): −; syncitia formed, Day 5 ([2]; 0.05 μM): (+); syncitia formed, Day 6 ([2]; 0.05 μM): ++; syncitia formed, Day 7 ([2]; 0.05 μM): ++; P 24 ([2]; 0.05 μM): 11810 pg/mL and 15879 pg/mL; syncitia formed, Day 4 ([2]; 0.1 μM): −; syncitia formed, Day 5 ([2]; 0.1 μM): −; syncitia formed, Day 6 ([2]; 0.1 μM): +; syncitia formed, Day 7 ([2]; 0.1 μM): ++; P 24 ([2]; 0.1 μM): 3507 pg/mL and 3670 pg/mL; syncitia formed, Day 4 ([2]; 0.5 μM): −; syncitia formed, Day 5 ([2]; 0.5 μM): −; syncitia formed, Day 6 ([2]; 0.5 μM): +; syncitia formed, Day 7 ([2]; 0.5 μM): ++; P 24 ([2]; 0.5 μM): 2578 pg/mL and 3140 pg/mL; syncitia formed, Day 4 ([2]; 1 μM): −; syncitia formed, Day 5 ([2]; 1 μM): −; syncitia formed, Day 6 ([2]; 1 μM): −; syncitia formed, Day 7 ([2]; 1 μM): +; P 24 ([2]; 1 μM): 2810 pg/mL and 1840 pg/mL; syncitia formed, Day 4 ([2]; 5 μM): −; syncitia formed, Day 5 ([2]; 5 μM): −; syncitia formed, Day 6 ([2]; 5 μM): −; syncitia formed, Day 7 ([2]; 5 μM): (+); P 24 ([2]; 5 μM): 284 pg/mL and 217 pg/mL; IC50 ([2]; HIV 1 NDK, Table 10): 20 nM; IC100 ([2]; HIV 1 NDK, Table 10): 5 µM; Day 7 syncitia formed ([3]; 0.005 μM, Table 6): ++/T; syncitia formed, Day 4 ([3]; 0.01 μM, C8166 cells): −; syncitia formed, Day 5 ([3]; 0.01 μM, C8166 cells): (+); syncitia formed, Day 6 ([3]; 0.01 μM, C8166 cells): +; syncitia formed, Day 7 ([3]; 0.01 μM, Day 7, C8166 cells): ++; syncitia formed, Day 4 ([3]; 0.05 μM, C8166 cells): −; syncitia formed, Day 5 ([3]; 0.05 μM, C8166 cells): −; syncitia formed, Day 6 ([3]; 0.05 μM, C8166 cells): (+); syncitia formed, Day 7 ([3]; 0.05 μM, Day 7, C8166 cells): +; P 24 ([3]; 0.05 μM, P 24 after Day 7, C8166 cells): 3810 pg/mL and 2300 pg/mL; syncitia formed, Day 4 ([3]; 0.1 μM, C8166 cells): −; syncitia formed, Day 5 ([3]; 0.1 μM, C8166 cells): −; syncitia formed, Day 6 ([3]; 0.1 μM, C8166 cells): (+); syncitia formed, Day 7 ([3]; 0.1 μM, Day 7, C8166 cells): +; P 24 ([3]; 0.1 μM, P 24 after Day 7, C8166 cells): 108 pg/mL and 130 pg/mL; syncitia formed, Day 4 ([3]; 0.5 μM, C8166 cells): −; syncitia formed, Day 5 ([3]; 0.5 μM, C8166 cells): −; syncitia formed, Day 6 ([3]; 0.5 μM, C8166 cells): −; syncitia formed, Day 7 ([3]; 0.5 μM, Day 7, C8166 cells): (+); syncitia formed, Day 4 ([3]; 1 μM, C8166 cells): −; syncitia formed, Day 5 ([3]; 1 μM, C8166 cells): −; syncitia formed, Day 6 ([3]; 1 μM, C8166 cells): −; syncitia formed, Day 7 ([3]; 1 μM, Day 7, C8166 cells): −; P 24 ([3]; 1 μM, P 24 after Day 7, C8166 cells): 86 pg/mL and 74 pg/mL; syncitia formed, Day 4 ([3]; 5 μM, C8166 cells): −; syncitia formed, Day 5 ([3]; 5 μM, C8166 cells): −; syncitia formed, Day 6 ([3]; 5 μM, C8166 cells): −; syncitia formed, Day 7 ([3]; 5 μM, Day 7, C8166 cells): −; P 24 ([3]; 5 μM, P 24 after Day 7, C8166 cells): 60 pg/mL and 34 pg/mL; IC50 [3, 4]: 10 nM; IC100 [3, 4]: 0.5 µM and 1 µM; P 24 ([3]; Day 7, 0.005 μM, Table 6): 23810 pg/mL; P 24 ([3]; Day 7, 0.01 μM, Table 6): 11810 pg/mL and 13740 pg/mL; P 24 ([3]; Day 7, 0.5 μM, Table 6): 3.5 pg/mL and 5.6 pg/mL; P 24 ([3]; Day 7, 1 μM, Table 6): 5.636 pg/mL and 4.8 pg/mL; P 24 ([3]; Day 7, 5 μM, Table 6): 5.6 pg/mL and 3.2 pg/mL
